Data on one molecule can be found in patent US8420307B2, “Sperm cryoprotective media” (The Jackson Laboratory, priority 2006, dated 2013).

In one test the test system is Rat Sperm. Put plainly: Rat sperm motility after cryopreservation and thawing. The test is classed as cell-based, LEW/SsNHsd rat. The settings on record: addition of 477 μM MTG to lactose/egg yolk media. How it is done:
The epididymides and vas deferentia were collected from one 33 week old LEW/SsNHsd rat (Harlan, Indianapolis, Ind.). Incisions were made in the tissue and the sperm were allowed to swim out, into 2 mL of a solution containing 8% lactose [w/v] (Sigma Aldrich; St. Louis, Mo.) and 23% egg yolk [v/v] from fresh eggs in distilled water (Invitrogen; Carlsbad, Calif.) for 10 min. The sperm suspension was then split with half being placed into the lactose/egg yolk solution and the other half being suspended in lactose/egg yolk solution containing 954 micromol MTG in 15 mL conical tubes. […] The 15 mL conical tubes containing the sperm samples were placed into a beaker containing ˜150 mL of 15° C. water for 10 min. […]
The sperm were loaded into 250 μL French straws (IMV; Maple Grove, Minn.; cat# AAA201), which were then sealed with an instantaneous heat sealer (model AIE-305HD; American International Electric; Whittier, Calif.) and 5 of them loaded into cassettes (Zanders Medical Supplies; Vero Beach, Fla.). […] The sperm were diluted 1:50 in Cooks Mouse Vitro Fert (Cook's; Spencer, Ind.) and motility was evaluated by counting at least 5 different fields using a video monitor connected to a microscope using a magnification of 40×. […]

Another test concerns bull sperm. Put plainly: Bovine sperm post-thaw motility (IVOS). In kind it is cell-based, Holstein bulls. To be noted: MTG 0, 100, 500, 1000 or 5000 μM in Triladyl egg yolk extender containing glycerol; 0 and 3 hr. How it is done: Semen was collected via an artificial vagina from 6 different Holstein bulls over 3 different days. The bulls were selected such that three produce sperm with good consistent freezing quality and three produce sperm that respond to cryopreservation with poorer consistency. Antibiotics were added to the neat semen and initial volume and concentration were determined using a graduated cylinder and spectrophotometry. From each collection, 5 different 500 μL aliquots of semen were extended with 1.5 mL of Triladyl egg yolk extender (Minitube; Verona, Wis.) containing glycerol. Subsequently, 2 mL of the same extender containing no MTG, 200, 1000, 2000 or 10,000 μM MTG was added to the extended semen to yield the final concentrations for MTG of 0, 100, 500, 1000 or 5000 μM. […]
(§1) For the examination, 6 straws per treatment per collection were thawed in a 37° C. water bath for at least 60 sec. For each treatment within a collection, two pools of semen were created and analyzed by combining the contents of three straws. […] The percent of motile sperm was determined on 4 different fields within each of 2 separate chambers. For viability the sperm samples were diluted 1:100 in PBS and stained with SYBR 14 ([…]) and propidium iodide (12 μM About 10,000 cells were counted using the Partec Flomax Flow Cytometer (Ft. Collins, Colo.).

A further test concerns bovine sperm. Put plainly: Bovine sperm post-thaw viability (SYBR 14 / propidium iodide flow cytometry). The test is classed as cell-based, Holstein bulls. How it is done: Sperm from three collections from each of 6 different bulls were frozen in the presence of MTG at the concentrations indicated on the x-axes. For each collection, two sets of three straws each were created and analyzed twice for sperm viability. Differences in sperm cell viability among the treatments were determined using analysis of variance on arcsine transformed percents and preplanned comparisons to the control of no MTG using Dunnett's method. Panel A illustrates the mean and standard errors for the 6 bulls while panels B though G illustrate the percent of viable sperm for the individuals. […]
Semen was collected via an artificial vagina from 6 different Holstein bulls over 3 different days. […] Antibiotics were added to the neat semen and initial volume and concentration were determined using a graduated cylinder and spectrophotometry. […]
as §1
On the technique in general: A flow cytometer gives signals particle by particle.

Entries after “also recorded” stand apart in the source; their conditions may differ.

Turning to `OCC(O)CS` (stereo not shown) [MTG, monothioglycerol], the “rat sperm motility after thawing, effect in words” value with Rat Sperm is reported as “increased motility”. For the same molecule, in the test with bull sperm, the “overall post-thaw motility of bull sperm” value is recorded as “no ill effects”. Moreover, in the test with bovine sperm (MTG 0, 100, 500, 1000 or 5000 μM in egg yolk extender containing glycerol, 6 bulls, FIG. 5), the “post-thaw viability of bovine sperm” value is listed as “not negatively influenced; also recorded: enhances post-thaw viability”. Further, the increase of viability result with bovine sperm (bovine sperm, 3 bulls with slight effect) is given as “slight effect”.
